IC50 data for 36 compounds are collected here from patent US20120035214A1, “RENIN INHIBITORS” (Merck Canada Inc., priority 2009, published 2012).

Experiment [1] has as its target T1, recombinant renin in human plasma (Homo sapiens, UniProt P00797).
T1 construct: purchased Proteos
T1 sequence (P00797 67-406): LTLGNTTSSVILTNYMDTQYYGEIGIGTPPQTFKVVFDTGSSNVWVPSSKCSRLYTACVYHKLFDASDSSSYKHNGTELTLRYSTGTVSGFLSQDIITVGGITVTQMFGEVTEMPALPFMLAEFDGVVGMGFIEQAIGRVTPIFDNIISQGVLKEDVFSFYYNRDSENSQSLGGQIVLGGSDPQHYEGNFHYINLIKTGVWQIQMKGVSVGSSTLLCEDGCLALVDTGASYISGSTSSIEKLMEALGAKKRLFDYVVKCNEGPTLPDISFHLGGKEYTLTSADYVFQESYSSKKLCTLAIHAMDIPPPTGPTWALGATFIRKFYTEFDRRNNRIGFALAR
Put plainly: Inhibition of renin in human plasma (QFRET, plasma). The experiment is classed as biochemical. Particulars: human EDTA plasma with 1 nM recombinant renin added; 37° C., 1 hour. The protocol:
Inhibition of Renin in Human Plasma
Human EDTA-collected plasma is rapidly thawed in warm water and centrifuged at 2900 g for 15 minutes at 4° C. The supernatant is collected and recombinant renin (Proteos) is added at a final concentration of 1 nM. The plasma is transferred to a Costar black 384 well plate (#3573). Renin inhibitors are added from a 17.5 fold concentrated DMSO solution and pre-incubated at 37° C. for 10 minutes. The internally-quench fluorescent peptide QXL520™-[…](5-FAM) (Anaspec), SEQ ID NO: 2, is diluted in 3M Tris pH 7.2, 200 mM EDTA and added to the plasma. The final concentrations are: 6 μM substrate, 342 mM Tris, 23 mM EDTA. The plate is incubated at 37° C. for 1 hour. The plate is read in a SpectraMax Gemini EM reader set at an excitation wavelength of 490 nm and an emission wavelength of 520 nm at times 0 and 1 hour. Background fluorescence at t=0 is subtracted from the measurement at t=1 hour. Inhibitory activity of the compounds is expressed as IC50.

For experiment [2], the target named is T2, Human recombinant renin (Homo sapiens, UniProt P00797).
T2 construct: purchased Proteos
T2 sequence (P00797 67-406): T1 sequence (P00797 67-406)
Put plainly: Inhibition of human recombinant renin (QFRET, buffer). The experiment is classed as biochemical. The note with it: buffer: 50 mM MOPS pH 7.4, 100 mM NaCl, 0.002% Tween 20; 37° C., 3 hours. On the procedure: Inhibition of Human Recombinant Renin
Human recombinant renin (Proteos) in 50 mM MOPS pH 7.4, 100 mM NaCl, 0.002% Tween 20 at a final concentration of […] is incubated with inhibitors from a 50 fold concentrated DMSO solution and 6 μM of an internally-quenched fluorescent peptide: DNP-[…]D,L-Amp (SEQ ID NO: 1); Paschalidou K. et al., Biochem J., 2004, 382, 1031). The reactions take place in a Costar 384 well black plate (#3573) at 37° C. for 3 hours. Fluorescence is measured at times 0 and 3 hours with a SpectraMax Gemini EM reader set at an excitation wavelength of 328 nm and at an emission wavelength of 388 nm. Background fluorescence at t=0 is subtracted from the measurement at t=3 hours. Inhibitory activity of the compounds is expressed as IC50.

Each structure is given as a SMILES string.

Consider `COCCCc1ccccc1-c1ccc([C@H]2CNCC[C@@H]2c2cccc3nc[nH]c23)c(Cl)c1` (racemic) [Structure 10], for which the figures for the IC50 in experiment [1] and in experiment [2] were 2060 nM and 3.5 nM, respectively.
For `CC(=O)NCCc1ccccc1-c1ccc([C@@H]2CNCC[C@H]2c2cc(F)cc(F)c2)c(C)c1` [Structure 17] the same measures were 11600 nM and 530 nM.
With `Cc1cc(-c2ccccc2COc2ccccc2)ccc1[C@H]1CNCC[C@@H]1c1cc(F)cc(F)c1` (racemic) [Structure 35], the half-maximal inhibitory concentration (IC50) came to 1890 nM in experiment [1] and 3.8 nM in experiment [2].
On to `CC(=O)NCCc1ccccc1-c1onc([C@H]2CNCC[C@]2(O)c2ccc(F)c(F)c2)c1Br` [Structure 80], for which the results for the half-inhibitory concentration (IC50) in experiment [1] and in experiment [2] were 0.6 nM and 0.23 nM, respectively.
With `CC(=O)NCCc1ccccc1-c1onc([C@H]2CNCC[C@@H]2c2ccc(OCCOc3c(Cl)cc(C)cc3Cl)cc2)c1Br` [Structure 111], the results for the IC50 in experiment [1] and in experiment [2] were 1.2 nM and under 0.05 nM, respectively.
`Cc1cc(-c2ccccc2CCN)ccc1[C@H]1CNCC[C@@H]1c1cc(F)cc(F)c1` (racemic) [Structure 27]: the IC50 stood at 1040 nM in experiment [1] and 81 nM in experiment [2].
As for `Cc1cc(-c2ccccc2CCNC(=O)c2ccn(C)n2)ccc1[C@H]1CNCC[C@@H]1c1cc(F)cc(F)c1` (racemic) [Structure 23], the IC50 in experiment [1] came out at 69 nM; in experiment [2], 26 nM.
For the compound `Cc1ccc(Cl)c(-c2noc([C@H]3CNCC[C@]3(O)c3ccc(F)c(F)c3)c2Br)c1F` [Structure 74], the IC50 in experiment [1] was 430 nM; in experiment [2], 4.9 nM.
Consider `CC(=O)NCCc1cc(C(F)(F)F)ccc1-c1ccc([C@H]2CNCC[C@@H]2c2ccc(F)c(F)c2)c(Cl)c1` (racemic) [Structure 47], for which the 50% inhibitory concentration (IC50) came out at 140 nM in experiment [1] and 0.59 nM in experiment [2].
Take `CC(=O)NCCc1ccccc1-c1ccc([C@H]2CNCC[C@]2(O)c2ccc(OC(F)(F)F)c(F)c2)c(C)c1` [Structure 132]: the IC50 was 18 nM in experiment [1] and 0.4 nM in experiment [2].
In the same order, the values of `C[C@H]1C[C@H](c2ccc(F)c(F)c2)[C@@H](c2nnc(-c3cccc(Cl)c3Cl)n2C2CC2)CN1` [Structure 93] are 0.62 nM and 0.14 nM.
Take `COC[C@H](C)COCc1ccc([C@@]2(O)CCNC[C@@H]2c2cnc(-c3ccccc3CCNC(C)=O)cc2C)cc1` [Structure 119]: the IC50 in experiment [1] was 3.6 nM; in experiment [2], 0.15 nM.
In the same order, the values of `COCCCc1ccccc1-c1ccc([C@H]2CNCC[C@]2(O)c2cccnc2)c(C)c1` (racemic) [Structure 40] are 1140 nM and 47 nM.
Turning to `Cc1cc(-c2ccccc2OCc2cccnc2)ccc1[C@H]1CNCC[C@@H]1c1cc(F)cc(F)c1` (racemic) [Structure 38], the IC50 is over 28000 nM in experiment [1] and 150 nM in experiment [2].
Turning to `O[C@]1(c2ccc(F)c(F)c2)CCNC[C@@H]1c1onc(-c2cccc(Cl)c2Cl)c1Br` [Structure 71], the half-inhibitory concentration (IC50) in experiment [1] stood at 7.8 nM; in experiment [2] it was 0.21 nM.
For `CC(=O)NCCc1ccccc1-c1onc([C@H]2CNCC[C@@H]2c2ccc(OCCOc3c(Cl)cc(C)cc3Cl)cc2)c1C(C)=O` [Structure 110] the same measures were 1.2 nM and 0.09 nM.
For `CC(=O)NCCc1ccccc1-c1ccc([C@H]2CNCC[C@@H]2c2cc(F)cc(F)c2)c(C)c1` (racemic) [Structure 15] the same measures were 18 nM and 1.6 nM.
For `Cc1cc(-c2ccccc2CCNC(=O)CC(F)(F)F)ccc1[C@H]1CNCC[C@@H]1c1cc(F)cc(F)c1` (racemic) [Structure 33] the same measures were 120 nM and 2.1 nM.
Take `COCC(F)(F)COCc1ccc([C@@]2(O)CCNC[C@@H]2c2ccc(-c3ccccc3CCNC(C)=O)cc2C)cn1` [Structure 120]: the figures for the half-inhibitory concentration (IC50) in experiment [1] and in experiment [2] were 1.2 nM and 0.66 nM, respectively.
On to `CC(=O)NCCc1ccccc1-c1onc([C@H]2CNCC[C@]2(O)c2ccc(COCC(F)(F)COC(C)C)cc2)c1Br` [Structure 112], for which the half-inhibitory concentration (IC50) in experiment [1] is 1.7 nM; in experiment [2], 0.44 nM.
In the same order, the values of `COCCCc1ccccc1-c1ccc([C@H]2CNCC[C@@H]2c2ccn(C)c(=O)c2)c(Cl)c1` (racemic) [Structure 57] are 80 nM and 6.4 nM.
As for `CC(=O)NCCc1ccccc1-c1onc([C@H]2CN[C@@H](C)C[C@@H]2c2ccc(F)c(F)c2)c1Br` [Structure 96], the figures for the half-maximal inhibitory concentration (IC50) in experiment [1] and in experiment [2] were 2.8 nM and 0.7 nM, respectively.
In the same order, the values of `COCC(F)(F)COCc1ccc([C@@]2(O)CCNC[C@@H]2c2ccc(-c3ccccc3CCNC(C)=O)cc2C)nc1` [Structure 123] are 5.6 nM and 1.2 nM.
Turning to `COCC(F)(F)COCc1ccc([C@@]2(O)CCNC[C@@H]2c2ccc(-c3ccccc3CCNC(C)=O)cc2C)cc1` [Structure 121], the half-inhibitory concentration (IC50) in experiment [1] came out at 0.32 nM; in experiment [2] it was 0.08 nM.
In the same order, the values of `CC(=O)NCCc1ccccc1-c1onc([C@H]2CNCC[C@]2(OCc2c[nH]nn2)c2ccc(F)c(F)c2)c1Br` [Structure 90] are 4.4 nM and 0.63 nM.
Consider `CC(=O)NCCc1ccccc1-c1onc([C@H]2CNCC[C@]2(OC(N)=O)c2ccc(F)c(F)c2)c1Br` [Structure 118], for which the IC50 in experiment [1] was 0.55 nM; in experiment [2] it was 0.22 nM.
Regarding `COCCCc1cc(OCCOC)ccc1-c1ccc([C@H]2CNCC[C@@H]2c2cccnc2)c(C)c1` (racemic) [Structure 6], the IC50 in experiment [1] is 1800 nM; in experiment [2] it was 380 nM.
In the same order, the values of `CC(=O)NCCc1ccccc1-c1nnc([C@H]2CN[C@@H](C)C[C@@H]2c2ccc(F)c(F)c2)n1C1CC1` [Structure 94] are 3 nM and 1.5 nM.
For `COCc1ccc2cccc(-c3ccc([C@H]4CNCC[C@@H]4c4cc(F)cc(F)c4)c(C)c3)c2c1` (racemic) [Structure 30] the same measures were 11300 nM and 100 nM.
Regarding `COCCCc1ccccc1-c1ccc([C@H]2CNCC[C@@H]2c2cccnc2)c(Cl)c1` (racemic) [Structure 11], the figures for the IC50 in experiment [1] and in experiment [2] were 66 nM and 2.7 nM, respectively.
In the case of `COC(=O)NCCc1ccccc1-c1ccc([C@H]2CNCC[C@@H]2c2ccn(C)c(=O)c2)c(Cl)c1` (racemic) [Structure 62], the concentration for half-maximal inhibition (IC50) is 4.9 nM in experiment [1] and 4.2 nM in experiment [2].
For `CC(=O)NCCc1ccccc1-c1ccc([C@H]2CNCC[C@@H]2c2cccnc2)c(Cl)c1` [Structure 13] the same measures were 4.1 nM and 1.5 nM.
In the same order, the values of `COCC(F)(F)COCc1ccc([C@@]2(O)CCNC[C@@H]2c2ccc(-c3ccccc3CCNC(C)=O)cc2C)cc1` (racemic) [Structure 55] are 0.95 nM and 0.17 nM.
In the same order, the values of `COC[C@H](C)COCc1ccc([C@@]2(O)CCNC[C@@H]2c2ccc(-c3ccccc3CCN3CCOC3=O)cc2C)cc1` [Structure 125] are 76 nM and 4.6 nM.
In the case of `COC[C@H](C)COCc1ccc([C@@]2(O)CCNC[C@@H]2c2ccc(-c3ccccc3CCNC(C)=O)cc2C)cc1` [Structure 129], the IC50 in experiment [1] turned out to be 0.44 nM; in experiment [2] it was 0.05 nM.
For `CC(=O)NCCc1ccccc1-c1onc([C@H]2CNCC[C@]2(OCC(O)CO)c2ccc(F)c(F)c2)c1Br` (stereo partly drawn) [Structure 117] the same measures were 1.4 nM and 0.37 nM.

For orientation: IC50 means the concentration that gives 50% inhibition.
